In patent publication US5302582A, “Enkastins: new glycopeptides which act to inhibit enkephlinase, processes for their preparation, and their use as pharmaceutical products” (Hoechst Aktiengesellschaft, priority 1987, dated 1994):

Biological target: T1, enkephalinase preparation solubilized from rat kidneys (Rattus norvegicus, UniProt P07861)
T1 construct: enkephalinase preparation solubilized from rat kidneys; from tissue; host or cells: rat kidney
T1 sequence (P07861 1-750): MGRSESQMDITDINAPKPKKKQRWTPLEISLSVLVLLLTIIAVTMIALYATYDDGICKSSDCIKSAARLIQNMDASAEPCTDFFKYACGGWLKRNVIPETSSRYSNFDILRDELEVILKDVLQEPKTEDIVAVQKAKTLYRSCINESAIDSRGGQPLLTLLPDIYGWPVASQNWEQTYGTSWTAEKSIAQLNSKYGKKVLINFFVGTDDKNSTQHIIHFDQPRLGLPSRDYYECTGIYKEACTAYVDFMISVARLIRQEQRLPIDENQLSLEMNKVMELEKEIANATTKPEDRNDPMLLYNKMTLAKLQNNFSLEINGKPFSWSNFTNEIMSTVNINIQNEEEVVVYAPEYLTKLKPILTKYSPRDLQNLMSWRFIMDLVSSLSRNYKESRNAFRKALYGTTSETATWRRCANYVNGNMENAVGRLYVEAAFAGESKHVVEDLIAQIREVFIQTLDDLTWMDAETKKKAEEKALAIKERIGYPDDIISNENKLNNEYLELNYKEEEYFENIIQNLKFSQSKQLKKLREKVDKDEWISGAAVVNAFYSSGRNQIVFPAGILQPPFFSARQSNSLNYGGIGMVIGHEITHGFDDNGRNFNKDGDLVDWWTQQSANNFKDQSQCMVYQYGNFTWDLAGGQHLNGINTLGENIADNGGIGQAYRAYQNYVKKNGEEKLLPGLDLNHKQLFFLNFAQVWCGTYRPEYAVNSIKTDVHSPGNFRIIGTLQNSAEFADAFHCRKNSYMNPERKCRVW
Assay: Enkephalinase assay (enkephalinase inhibition)
Assay type: biochemical
Details: for IC50: inhibitor preincubated with the enzyme at room temperature for 60 minutes before addition of the substrate, read-out: IC50 (50% inhibition of enkephalinase); for enkephalinase-inhibitory activity of HPLC peaks: freeze-dried RP-18 HPLC fractions of crude enkastin complex from Streptomyces albus ATCC 21838
Experimental: The enzyme used was an enkephalinase preparation solubilized from rat kidneys by methods known per se [Mumford, R. A. et al. 1982, Biochem. Biophys. Res. Comm. 109, 1303-1309]. The 50% inhibition of enkephalinase by the compounds according to the invention, i.e. the IC50 value, was determined in a known manner using a concentration series, and the inhibitors, to which the invention relates, having been preincubated with the enzyme at room temperature for 60 minutes before the enzymatic reaction was started by addition of the substrate. Suitable checks for the non-inhibited reaction were carried out in the absence of an inhibitor.

Molecule	IC50 [nM]	enkephalinase-inhibitory activity of HPLC peaks
CC(C)[C@@H](NCC(=O)[C@@H](O)[C@H](O)[C@H](O)CO)C(=O)N[C@@H](CC(=O)O)C(=O)O [compound 1, N-(1-deoxyfructos-1-yl)-D-Val-Asp]	1.3	–
CC(C)[C@H](NCC(=O)[C@@H](O)[C@H](O)[C@H](O)CO)C(=O)N[C@@H](CCC(=O)O)C(=O)O [compound 6, N-(1-deoxyfructos-1-yl)-Val-Glu]	34	enkephalinase-inhibitory activity
N-(1-deoxyfructos-1-yl)-Ile-Asp [compound 3]	1.8	enkephalinase-inhibitory activity
O=C(O)CC[C@H](NC(=O)[C@H](Cc1ccccc1)NCC(=O)[C@@H](O)[C@H](O)[C@H](O)CO)C(=O)O [compound 5, N-(1-deoxyfructos-1-yl)-Phe-Glu]	56	–
CC(C)[C@H](NCC(=O)[C@@H](O)[C@H](O)[C@H](O)CO)C(=O)N[C@@H](CC(=O)O)C(=O)O [compound 4, N-(1-deoxyfructos-1-yl)-Val-Asp]	6.3	enkephalinase-inhibitory activity
CC[C@@H](C)[C@@H](NCC(=O)[C@@H](O)[C@H](O)[C@H](O)CO)C(=O)N[C@@H](CC(=O)O)C(=O)O [compound 2, N-(1-deoxyfructos-1-yl)-D-Ile-Asp]	1.8	–

Other lines, results leading:

IC50 [nM]	enkephalinase-inhibitory activity of HPLC peaks	Molecule
340	–	CC[C@@H](C)[C@@H](NCC(=O)[C@@H](O)[C@H](O)[C@H](O)CO)C(=O)O [compound 14, N-(1-deoxyfructos-1-yl)-D-Ile]
210	–	CC[C@H](C)[C@H](NCC(=O)[C@@H](O)[C@H](O)[C@H](O)CO)C(=O)N[C@@H](CO)C(=O)O [compound 11, N-(1-deoxyfructos-1-yl)-Ile-Ser]
75	–	N-(1-deoxyfructos-1-yl)-Hhp-Asp [compound 10]
56	enkephalinase-inhibitory activity	CC[C@H](C)[C@H](NCC(=O)[C@@H](O)[C@H](O)[C@H](O)CO)C(=O)N[C@@H](CCC(=O)O)C(=O)O [compound 8, N-(1-deoxyfructos-1-yl)-Ile-Glu]
34	–	CC[C@H](C)[C@H](NCC(=O)[C@@H](O)[C@H](O)[C@H](O)CO)C(=O)N[C@@H](CC(=O)O)C(=O)O [compound 7, N-(1-deoxyfructos-1-yl)-Ile-Asp]
320	–	CC(C)[C@H](NCC(=O)[C@@H](O)[C@@H](O)[C@H](O)CO)C(=O)N[C@@H](CC(=O)O)C(=O)O [compound 13, N-(1-deoxytagatos-1-yl)-Val-Asp]
70	–	CC[C@H](C)[C@H](NCC(=O)[C@@H](O)[C@H](O)[C@H](O)CO)C(=O)N[C@@H](CC(=O)OC(C)(C)C)C(=O)O [compound 9, N-(1-deoxyfructos-1-yl)-Ile-Asp(OtBu)]
230	–	CC(C)[C@@H](NCC(=O)[C@@H](O)[C@H](O)[C@H](O)CO)C(=O)O [compound 12, N-(1-deoxyfructos-1-yl)-D-Val]
